Where “and” joins values, the source holds several entries; their conditions need not be identical. Equal entries are not always repeated. Where two headings read alike, the source gives them in different places.
Assays:
[1] = test system: human prostate; experiment: Transperineal intraprostatic EtOH injection in heart-beating cadaveric organ donors; details: for average volume of the lesion: five human prostates, 1 cm porous segment
[2] = test system: canine prostate; details: for lesion volume: 1 cm porous segment, 2 h after injection
Protocol: Intraprostatic ethanol injections were performed in eight Beagle dogs for acute experiments. Animals received premedication with medetomidin (0.004 mg/kg), metadon (0.3 mg/kg), and acepromazil (0.02 mg/kg). Anesthesia was induced with propofol (1.5-2 mg/kg) and maintained by propofol (10 mg/kg/hour) and fentanyl (0.24 mg/kg/hour). Prostate exposure was performed using lower midline abdominal incisions and blunt dissection of surrounding tissues. The porous needle was stabilized with a fixation apparatus attached to the operating table and was deployed with a protective sheath in the lateral lobe of the prostate. […] Where possible, the distal end of the sheath was kept at least 2 mm from the pseudocapsule. […] Injections in both lateral lobes of each canine were performed. […] In the remaining experiments, 0.5, 1, 1.5, or 2 ml was injected into each prostatic lobe. In five experiments, a needle with a 1 cm long microporous segment was used, while a 2 cm long segment was used in one experiment. The tissue resistance during injections was measured by including the pressure transduced between the pump and the needle. Two hours following the second injection, the animals were anaesthetised by an intramuscular injection of medetomidine and ketamine, followed by intravenous injection of pentobarbital, and euthanized using exsanguination.
Histology slides were converted to digital images.

[3] = test system: canine prostate; experiment: Chronic canine experiment: intraprostatic EtOH injection, four weeks observation, autopsy and histology

CCO [EtOH, ethanol]
average volume of the lesion ([1]; 2 ml injected per lobe): 0.978 mL
average volume of the lesion ([1]; 3 ml injected per lobe): 1.742 mL
lesion size with 3 ml relative to 2 ml ([1]; average, human prostates): 1.78 ×
extraprostatic tissue injury ([1]; human prostates): no evidence to the extraprostatic tissue injury was observed
lesion localization ([1]; human prostates): In all cases the lesion was localized within the prostate
prostatic capsule integrity ([1]; human prostates): remained intact
lesion volume ([2]; 0.5 ml EtOH injected per lobe): 208±58 mm^3
lesion volume ([2]; 1.0 ml EtOH injected per lobe): 588±112 mm^3
lesion volume ([2]; 1.5 ml EtOH injected per lobe): 791±338 mm^3
tissue infiltration with 2 cm porous segment needle ([2]; 2 cm porous segment compared with 1 cm): larger areas of tissue infiltration
lesion volume ([2]; 2.0 ml EtOH injected per lobe): 1158±200 mm^3
necrotic areas, share of the section ([2]; canine prostate section, FIG. 4): more than 80%
extraprostatic leak during injection ([2]; dog, in vivo): No extraprostatic leak
prostatic pseudocapsule integrity ([2]; dog, in vivo): remained intact without evidence of disruption
transient increase in body temperature ([3]; animals with wound swelling, lasted less than 24 hours): 38.5 °C and 39 °C
extraprostatic leak during injection ([3]; chronic study): free of exptraprostatic leak
immediate complications ([3]; chronic study): No immediate complications occurred
long-term complications ([3]; chronic study, four weeks observation): swelling of the wound in two animals and serous exudation in one animal
damage to adjacent structures at prostatectomy ([3]; four weeks after injection): no damage to adjacent structures
tissue defects on whole mount sections ([3]; four weeks after injection, H&E): tissue defects (cavities) in all prostatic lobes injected with 1, 1.5, and 2 ml
prostatic pseudocapsule area ([3]; four weeks after injection, histology): showed no abnormalities
